Patent publication US6441168B1, “Stable crystalline salts of 5-methyltetrahydrofolic acid” (Eprova AG, priority 1999, dated 2002)
Read-outs that look alike come from different tables or passages of the source.

Columns and labels:
[1] = in air, 25° C., 60% relative humidity
Method: The content of 5-methyltetrahydrofolic acid salt which is quoted in the examples was s determined by HPLC in each case and is given as % area. The water content was determined by a Karl Fischer method.
In order to determine the stabilities of the crystalline salts of 5-methyltetrahydrofolic acid, the substances were stored, together with comparison specimens, in air at 25° C. and at 60% relative humidity. The content of 5-methyltetrahydrofolic acid salt remaining was measured at periodic intervals and is given by comparison with the initial value.

Compound | Solubility at 20° C. in 0.9% NaCl [%] | Solubility at 20° C. in water [%] | content of 5-methyltetrahydrofolic acid salt remaining, compared with the initial value ([1]; storage 0 months) [%] | content of 5-methyltetrahydrofolic acid salt remaining, compared with the initial value ([1]; storage 12 months) [%] | content of 5-methyltetrahydrofolic acid salt remaining, compared with the initial value ([1]; storage 3 months) [%] | content of 5-methyltetrahydrofolic acid salt remaining, compared with the initial value ([1]; storage 6 months) [%] | content of 5-methyltetrahydrofolic acid salt remaining, compared with the initial value ([1]; storage 18 months) [%] | content of 5-methyltetrahydrofolic acid salt remaining, compared with the initial value ([1]; storage 88 months) [%]
CN1c2c([nH]c(N)nc2=O)NC[C@@H]1CNc1ccc(C(=O)N[C@@H](CCC(=O)[O-])C(=O)[O-])cc1.[Ca+2] [Type II, calcium salt of 5-methyl-(6S)-tetrahydrofolic acid] | 5.8 | 3.8 |  |  |  |  |  | 
CN1c2c([nH]c(N)nc2=O)NC[C@@H]1CNc1ccc(C(=O)N[C@@H](CCC(=O)[O-])C(=O)[O-])cc1.[Ca+2] [Type I, calcium salt of 5-methyl-(6S)-tetrahydrofolic acid] | 1.6 | 1.1 |  |  |  |  |  | 
CN1c2c([nH]c(N)nc2=O)NC[C@@H]1CNc1ccc(C(=O)N[C@@H](CCC(=O)[O-])C(=O)[O-])cc1.[Ca+2] [Amorphous calcium salt of 5-methyl-(6S)-tetrahydrofolic acid] [reference compound] |  |  | 100 | 84.2 |  |  |  | 
CN1c2c([nH]c(N)nc2=O)NC[C@@H]1CNc1ccc(C(=O)N[C@@H](CCC(=O)[O-])C(=O)[O-])cc1.[Ca+2] [Crystalline calcium salt of 5-methyl-(6S)-tetrahydrofolic ac] [calcium salt of 5-methyl-(6S)-tetrahydrofolic acid] |  |  | 100 | 99.1 | 98.6 | 98.7 | 99.0 | 97.8
CN1c2c([nH]c(N)nc2=O)NC[C@@H]1CNc1ccc(C(=O)N[C@@H](CCC(=O)[O-])C(=O)[O-])cc1.[Ca+2] [Type III, calcium salt of 5-methyl-(6S)-tetrahydrofolic acid] | 1.5 | 1.0 |  |  |  |  |  | 
